# Experimental data: a melting point compilation (Tetko et al.; mined from patent text by program, amines drawn as free bases though some values may be those of a salt)
row,Compound,melting point
1,NC(=O)c1ccc(F)c2c1CC(N(CCC(=O)c1c[nH]c3ccc(F)cc13)C1CCC1)CO2 (stereo not given),139 °C
2,O=C(O)CNC(=O)COc1c(F)cc(CSCCNS(=O)(=O)c2ccc(Cl)cc2)cc1F,140 °C
3,O[C@@H]1CN(Cc2ccccc2)C[C@H]1Oc1ccc(OCc2ccccc2)cc1 (relative stereo),98 to 100 °C
4,O=Cc1c2n(c3cc(Br)ccc13)CCNCC2,186 to 188 °C
5,CCCCCCCCCCCCCCCCC(C)(C)C(=O)O,50 to 53 °C
6,CN1C(=O)C(CCCN2CCN(c3ccc(F)cc3)CC2)Sc2ccccc21 (stereo not given),103 to 104 °C
7,CCCc1nc2c(N)nc3cc(Oc4ccccc4C(=O)OC)ccc3c2n1CC(C)C,167 to 168 °C
8,O=[N+]([O-])C(=Cc1ccoc1)C1=NCCN1Cc1ccc(Cl)nc1,175 to 176 °C
9,O=C(Cl)c1csc(=O)[nH]1,184 °C
10,COc1cc2c(cc1OC)C(=O)C(CN1CCC3(CC1)C(=O)NCN3c1ccccc1)C2 (stereo not given),174 to 177 °C
11,CNC(=O)CC1CN=C(c2cc3cc(Oc4ccc(S(C)(=O)=O)cc4)cc(OC)c3[nH]2)S1 (stereo not given),125 to 126 °C
12,Cc1oc(-c2ccccc2)nc1COc1ccc(CC2SC(=O)NC2=O)cc1 (stereo not given),162 to 163 °C
13,C[C@]1(CN2CCN(NCc3ccc(C(F)(F)F)cc3)CC2)Cn2cc([N+](=O)[O-])nc2O1,131 to 136 °C
14,Cc1nn(C)c(O)c1C(=O)c1ccc(Cl)c(OCCn2cnnn2)c1Cl,63 to 68 °C
15,Cc1sc2c(c1C)C(c1ccc(Cl)cc1)=NC(CC(=O)N1CCOCC1)c1nnc(C)n1-2 (stereo not given),252 to 254 °C
16,Nc1nc(O)ncc1-c1cccc(Cl)c1Cl,330 to 334 °C
17,COc1ccc(-c2cc3nccnc3[nH]2)cc1OCCO,203 to 205 °C
18,Cc1nc(-c2ccc(Br)cc2)n(-c2ccc(S(C)(=O)=O)cn2)n1,211 to 212 °C
19,CNc1nc(-c2cccc(NC(=O)c3ccc(OC)c(OC4CCCC4)c3)c2)c2cc(OC)c(OC)cc2n1,129 to 131 °C
20,CN(CCc1nc(-c2cc(C(C)(C)C)c(O)c(C(C)(C)C)c2)cs1)C(=O)OC(C)(C)C,204 °C
21,O=C(O)/C=C/c1ccc(OCc2ccccc2)cc1OCc1ccccc1,153 to 155 °C
22,O=C(C=Cc1ccc(Cl)cc1)NC1CCCNC(=O)C1 (stereo not given),256 to 257 °C
23,CN1C(=S)N(c2ccc(C#N)c(C(F)(F)F)c2)C(=O)C1(CF)CF,122 to 123 °C
24,CC(C)c1nn(-c2ccc(C(F)(F)F)cn2)cc1CCCO,87 to 88 °C
25,CCOC(=O)Cc1csc(Nc2ccc(Cl)c(C(F)(F)F)c2)n1,148 to 150 °C
26,O=C1c2c(Cl)c(Cl)c(Cl)c(Cl)c2C(=O)N1c1ccccc1,251 to 253 °C

row,Compound,melting point
1,CCn1ncc2c(N)c3c(nc21)CCc1ccccc1C3=O,132 to 133 °C
2,COc1ccc(C(=O)N(C)C)c(-c2ccccc2)c1OC,101 to 102 °C
3,CC(=O)C=Cc1ccc(C#N)cc1,103 to 106 °C
4,CC1(C)Cc2cccc(Cl)c2C=[N+]1[O-],110 to 111 °C
5,CC(=O)NCCn1ccc2ncnc(Nc3ccc(Oc4cccc5sncc45)c(Br)c3)c21,132 to 135 °C
6,CCCn1cc(Cc2ccc(C(=O)NS(=O)(=O)c3ccccc3C)cc2OC)c2cc(C=CCC(=O)N(C)C)ccc21,119 to 121 °C
7,CCCc1c(CSc2nnc(SCCCCCC(=O)O)s2)ccc(C(C)=O)c1O,67 to 74 °C
8,CC(C(=O)N(C)C)n1ccc(-c2cccs2)n1 (stereo not given),95 to 97 °C
9,CN(C(=O)c1cc(=O)n(C)c2ccc(C(=O)c3ccc(Cl)cc3)cc12)c1cccc(Cl)c1,184 °C
10,Cc1cc([N+](=O)[O-])ccc1NC(=O)c1cc(C(C)(C)C)ccc1O,202 to 204 °C
11,O=c1[nH]nc2n1CCc1ccccc1C2,253 to 261 °C
12,O=C(OCc1ccccc1)C1CCc2[nH]c3ccccc3c2C1 (stereo not given),104 to 105 °C
13,Cc1c(CNCC2CCOCC2)[nH]c2c(C)c(NC(=O)c3ccc(OC[C@@H]4CCCO4)cc3)ccc12,184 to 185 °C
14,Cc1cc(C#N)sc1-c1ccc2c(c1)C(C)(C)OC(=S)N2,211 to 212 °C
15,N#Cc1cccc(-c2ccc(=O)n(Cc3cccc(-c4ncc(O)cn4)c3)n2)c1,245 to 248 °C
16,Nc1ccc(-c2ccncc2)cc1,232 to 234 °C
17,COCOc1cccc2c(=O)[nH]c(C3CCN(C)CC3)cc12,194 to 196 °C
18,CC(C)Oc1ccc(/C=C(\NC(=O)c2ccc(OCCCC3CC3)cc2)C(=O)NCCO)cc1,64 to 66 °C
19,COc1ccc(C2SCc3c(sc(N)c3C(=O)c3cccs3)S2)cc1 (stereo not given),138 to 140 °C
20,COc1ccc(-c2oncc2CCC(=O)O)cc1,101 to 102 °C
21,CCCCOc1cc(C(=O)O)cc([N+](=O)[O-])c1C(=O)c1ccc(C)cc1,162 to 163 °C
22,O=C(O)CCCCN1CCN2c3ccccc3Sc3ccccc3C2C1 (stereo not given),226 to 230 °C
23,CCOC(=O)N1Cc2ccccc2P1(C)=O (stereo not given),102 to 104 °C
24,O=C(O)c1c[n+]([O-])cc2ccccc12,280 to 283 °C
25,CC(=O)N(C)C(=O)Oc1cccc2c1OCO2,48 to 50 °C

# Now from value to molecule:
row,melting point,Compound
1,92 to 94 °C,CCCCCCCCCCCCCCCCNc1c(Cl)cc(C(=O)O)cc1Cl
2,194 to 195 °C,CC1(C)CCC(C)(C)C2=C1CC(C(=O)Oc1ccc(C(=O)O)cc1)C2
3,53 to 60 °C,CC(C)NCC(O)COc1cccc(-c2oc3ccccc3c2C(=O)c2ccc(Cl)cc2)c1 (stereo not given)
4,117 to 119 °C,CCCCCCCC[C@H](O)[C@H](O)[C@H]1CCC(=O)O1
5,180 to 182 °C,CCOC(=O)c1c(C)nc2[nH]ncc2c1OCC
6,72 to 73 °C,CCOC(=O)c1cc(CC)sc1Nc1c([N+](=O)[O-])cccc1C(F)(F)F
7,93 °C,CNn1c(C)nn(C(=O)NC(C)(C)CCl)c1=O
8,68 to 69 °C,CSCC[C@H](NC(=O)C1(CS)Cc2ccccc2C1)C(=O)O
9,175 to 178 °C,CC(=O)Oc1cc([N+](=O)[O-])ccc1CN1C(=O)c2ccccc2C1=O
10,194 to 195 °C,CCCCOc1ncc(C(C)=O)cc1-c1nc2c(CC)n(C3CCN(C(=O)OC(C)(C)C)CC3)nc2c(=O)[nH]1
11,181 to 186 °C,CN1CCCC2(OCCO2)C1Cc1cccc2[nH]ccc12 (stereo not given)
12,174 °C,O=C(O)CCCc1cc2nc(Cl)ccc2n1S(=O)(=O)c1ccc(Cl)cc1
13,125 to 129 °C,Oc1ccc2nc(-c3ccc(O)c(F)c3)cc(C#Cc3ccccc3)c2c1
14,157 to 158 °C,COC(=S)NC[C@H]1CN(c2ccc(-c3nc(Cn4cccn4)cs3)c(F)c2)C(=O)O1
15,182 to 184 °C,FC(F)(F)c1ccc(CN2CC3(COc4cc5c(cc43)CCO5)c3c(Br)cccc32)o1 (stereo not given)
16,176 to 177 °C,NC(=O)c1cc2c(Oc3ccc(Cl)cc3)cncc2s1
17,158 to 160 °C,N#CCc1cccc2c(-c3ccc(F)cc3)onc12
18,204 to 205 °C,CNCc1ccc2nc(NC(=O)c3ccc(C(C)(C)C)cc3)cn2c1
19,215 to 217 °C,C[C@H](CO)Nc1nc(SCc2cccc(F)c2F)nc2[nH]c(=O)cnc12
20,120 to 121 °C,COc1ccc2c(=O)c3ccc(O)c(OC)c3oc2c1
21,126 °C,C=C(C)C(CC=C(C)C)CC12CC(CC=C(C)C)C(C)(C)C(CC=C(C)C)(C(=O)C(C(=O)c3ccc(O)c(O)c3)=C1O)C2=O (stereo not given)
22,146 °C,COc1ccc2c(c1)[C@@H](Oc1ccc3c(c1)CCC(=O)N3)[C@H](N1CCC[C@@H](N)C1)C2
23,140 to 143 °C,COc1cc(OC)c(N2CCCC2)cc1/C=C/C(=O)c1ccc(S(=O)(=O)NCCCn2ccnc2)cc1
24,77 to 79 °C,C=C1CCC2C3CCc4cc(OC(C)=O)ccc4C3CCC12C (stereo not given)
25,72 °C,CCCCc1c(-c2cnccn2)ssc1=S

row,melting point,Compound
1,61 to 64 °C,COc1ccc(-c2ccc(C#N)o2)cc1C(F)(F)F
2,164 to 167 °C,CC(=O)Nc1c(C#N)oc2ccccc12
3,89 to 91 °C,Oc1ccc(Oc2ccc(OCC(O)CCc3cccnc3)cc2)cc1 (stereo not given)
4,152 to 155 °C,CN(C(=O)/C=C/c1ccco1)c1ccc(S(=O)(=O)NC2CCCCCC2)cc1
5,137 to 138 °C,Cc1oc(-c2ccccc2)nc1COc1ccc(CCCc2nnn[nH]2)cn1
6,190 to 191 °C,Cc1oc(-c2ccccc2)nc1COc1ccc(C(=O)O)cc1
7,78.9 °C,"CC(c1ccccc1)N(C=O)CC#N (single isomer, unassigned; (+))"
8,116 to 117 °C,CC1(C)COC(c2c(F)cccc2C2(C)CCCC2)=N1
9,128 to 129 °C,O=C(O)C1=Cc2cc(OC(F)(F)F)ccc2NC1C(F)(F)F (stereo not given)
10,174 to 175 °C,CN1C(=O)Cn2c(nn(-c3ccccc3)c2=O)-c2cc(Cl)ccc21
11,261 to 263 °C,COc1cccc2c1nc(C(F)F)n2-c1nc(Nc2ccc(F)nc2)nc(N2CCOCC2)n1
12,201 to 202 °C,CC(C)c1ccc(-c2c(Cl)c(CN3C(=O)CCC3=O)nc3sc4c(c23)CCN(Cc2ccccc2)C4)cc1
13,170 °C,Cc1cc(C(=O)NCc2ccccc2)c(N)s1
14,151 °C,CC(C)(O)c1ccc(C2CCNCC2)c(F)c1
15,72 to 74 °C,Cc1cccc(Cl)c1-n1nc(C(C)C)c(C(N)=O)c1N
16,201 to 203 °C,COc1cc(C(=O)c2c[nH]c(-c3ccc(C)cc3)n2)cc(OC)c1OC
17,124 to 125 °C,CCCNC(=O)[C@H](CSCc1ccccc1)NC(=O)c1cc2cccc(NS(=O)(=O)c3cccs3)c2[nH]1
18,120 to 122 °C,CCNC(=O)c1c([Si](C)(C)C)ccc(C)c1Cl
19,196 to 198 °C,O=C1CCC(N2C(=O)c3cccc(OCc4ccc(CN5CC6CCC(C5)O6)cc4)c3C2=O)C(=O)N1 (stereo not given)
20,142 to 144 °C,CC(=O)OCc1nn(-c2ccc(F)cc2)c2c1CCCC2Cc1cccc2ccccc12 (stereo not given)
21,79 °C,COC(=O)Cc1ccc(OCc2ccc3ccccc3n2)c(Cl)c1
22,178 to 180 °C,Cc1ccc(-c2c(N)ncnc2OCCOc2ncc(Br)cn2)cc1
23,205 to 210 °C,C1=C(/C=C/c2ccccc2)CCN(Cc2n[nH]c3c2CCc2ccccc2-3)C1
24,84 to 86 °C,COc1ccc(Nc2nc(NC3CCCCCC3)nc(OCC3CCCN3)n2)cc1Cl (stereo not given)
